Experiments:
Test in all cases: relative viability (nuclei count vs DMSO), 5 days (fraction); higher = more cells survive
[1] = compound: Cc1nc(Nc2ncc(C(=O)Nc3c(C)cccc3Cl)s2)cc(N2CCN(CCO)CC2)n1 [Dasatinib] + COc1cccc2cc(-c3nc([C@H]4CC[C@H](C(=O)O)CC4)n4ncnc(N)c34)[nH]c12 [OSI-027] (partner 0.5 µM)
In short: (§1)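 One day after seeding in 1536-well plates, lung cancer cell lines were dosed by pin tool. Dosing was either single-drug or a fixed anchor-drug dose plus five library-drug doses (not always all listed) in √10 steps. After 5 days, nuclei were stained in one fix-and-stain step and counted on 4× images, and relative viability is the nuclei count of treated wells over that of vehicle wells, given as the median of duplicate plates.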

[2] = compound: Cc1nc(Nc2ncc(C(=O)Nc3c(C)cccc3Cl)s2)cc(N2CCN(CCO)CC2)n1 [Dasatinib] + CS(=O)(=O)CCNCc1ccc(-c2ccc3ncnc(Nc4ccc(OCc5cccc(F)c5)c(Cl)c4)c3c2)o1 [Lapatinib] (partner 2 µM)
In short: as §1

[3] = compound: Cc1nc(Nc2ncc(C(=O)Nc3c(C)cccc3Cl)s2)cc(N2CCN(CCO)CC2)n1 [Dasatinib] + N=C(N)NC(=N)NCCc1ccccc1 [Phenformin] (partner 250 µM)
In short: as §1

[4] = compound: Cc1nc(Nc2ncc(C(=O)Nc3c(C)cccc3Cl)s2)cc(N2CCN(CCO)CC2)n1 [Dasatinib] + C[C@]1(O)C[C@@H](c2nc(-c3ccc4ccc(-c5ccccc5)nc4c3)c3c(N)nccn32)C1 [Linsitinib] (partner 1 µM)
In short: as §1

Cell Line | relative viability ([1]; first compound 0.005 µM) | relative viability ([1]; first compound 0.01581 µM) | relative viability ([1]; first compound 0.05 µM) | relative viability ([1]; first compound 0.1581 µM) | relative viability ([1]; first compound 0.5 µM) | relative viability ([2]; first compound 0.005 µM) | relative viability ([2]; first compound 0.01581 µM) | relative viability ([2]; first compound 0.05 µM) | relative viability ([2]; first compound 0.1581 µM) | relative viability ([2]; first compound 0.5 µM) | relative viability ([3]; first compound 0.005 µM) | relative viability ([3]; first compound 0.01581 µM) | relative viability ([3]; first compound 0.05 µM) | relative viability ([3]; first compound 0.1581 µM) | relative viability ([3]; first compound 0.5 µM) | relative viability ([4]; first compound 0.005 µM) | relative viability ([4]; first compound 0.01581 µM) | relative viability ([4]; first compound 0.05 µM) | relative viability ([4]; first compound 0.1581 µM) | relative viability ([4]; first compound 0.5 µM)
ABC-1 | 0.506 | 0.429 | 0.363 | 0.36 | 0.345 | 0.993 | 0.896 | 1.38 | 0.872 | 0.693 | 0.22 | 0.256 | 0.245 | 0.221 | 0.238 | 0.743 | 0.704 | 0.592 | 0.452 | 0.49
NCI-H322M | 0.549 | 0.483 | 0.351 | 0.213 | 0.168 | 0.582 | 0.345 | 0.373 | 0.246 | 0.189 | 0.604 | 0.61 | 0.443 | 0.206 | 0.195 | 1.04 | 0.703 | 0.708 | 0.319 | 0.196
COR-L23 | 0.628 | 0.612 | 0.61 | 0.46 | 0.375 | 0.983 | 0.853 | 0.955 | 0.74 | 0.737 | 0.431 | 0.348 | 0.384 | 0.374 | 0.321 | 0.867 | 0.665 | 0.613 | 0.329 | 0.242
NCI-H2085 | 0.554 | 0.626 | 0.34 | 0.251 | 0.164 | 0.666 | 0.624 | 0.417 | 0.199 | 0.182 | 0.636 | 0.651 | 0.458 | 0.215 | 0.162 | 0.773 | 0.789 | 0.644 | 0.232 | 0.172
